Data: US12116614B2, “Methods for determining antibiotic sensitivity” (priority 2020, dated 2024)
Entries after “also recorded” stand apart in the source; their conditions may differ.

Key:
NRel M. catarrhalis = conditions: released from dual-species biofilm by anti-rsPilA; cited from earlier work
NRel NTHI = conditions: released from dual-species biofilm by anti-rsPilA; cited from earlier work
[1] = test system: NTHI (biofilm-resident, planktonic, anti-rsPilA NRel, anti-IHF NRel); assay: Antibiotic sensitivity of biofilm-resident, planktonic or NRel NTHI (2 h antibiotic exposure, CFU plating); type: cell-based, Nontypeable Haemophilus influenzae; conditions: for sensitivity to killing of anti-IHF NRel compared to planktonic NTHI / sensitivity to killing of anti-rsPilA NRel compared to planktonic NTHI: 2 h antibiotic at concentration killing ~20-25% of planktonic NTHI; for sensitivity to killing of time-matched anti-rsPilA NRel compared to planktonic NTHI: TMP-SMX 0.09 and 0.45 μg per ml, AMC 0.3 and 0.15 μg per ml
Description: Biofilms were established for 16 hr at 37° C. as described above. For biofilm-resident NTHI: biofilms were washed twice with DPBS and incubated in sBHI supplemented with the indicated antibiotics for at 37° C. 2 h. For planktonic NTHI: NTHI were incubated in sBHI for 3 hr as described above to reach log phase of growth, then diluted to the approximate concentration of either the anti-IHF (2×10^8 CFU/ml) or anti-rsPilA NRels (3×10^8 CFU/ml) to permit comparison between anti-IHF or anti-rsPilA NRels, (see FIG. 1). Planktonic NTHI were incubated with the indicated antibiotics at 37° C. for 2 hr. For NRel NTHI: anti-IHF or anti-rsPilA NRel, generated and collected as described above were incubated at 37° C. for 2 hr with the indicated antibiotics. CFU NTHI were determined by serial dilution and plating. Amoxicillin (Sigma-Aldrich, St. Louis, MO) and clavulanate (U.S. Pharmacopeia, Rockville, MD) were used at a ratio of 2:1. Trimethoprim (Sigma-Aldrich) and sulfamethoxazole (Santa Cruz Biotech, Dallas, TX) were used at a ratio of 1:5. […] All experiments were performed at least three times on separate days with two technical replicates for each treatment and control group.
To avoid excessive manipulation or dilution of NRel NTHI, and to permit direct comparison of equal numbers of planktonic and NRel, the planktonic cell density was adjusted to the same CFU per ml as the NRel population in each experiment as follows: NTHI were incubated statically to mid log phase growth then diluted to either 3×10^8 CFU/ml for comparison with anti-rsPilA NRel collected at 6 h, or to 2×10^8 CFU/ml for comparison with anti-IHF NRel collected at 15 min (see FIG. 1). Applicant then determined the concentrations of amoxicillin (Sigma-Aldrich, St. Louis, MO) and clavulanate (U.S. Pharmacopeia, Rockville, MD), or of trimethoprim (Sigma-Aldrich) and sulfamethoxazole (Santa Cruz Biotech, Dallas, TX) that killed approximately 25% of planktonic NTHI at each density. The same antibiotic concentrations were used for the anti-IHF or anti-rsPilA NRel, the density-matched (same CFU/ml) planktonic NTHI, and the adherent biofilm for each relevant experiment. […] Applicant then assessed killing of anti-IHF or anti-rsPilA NRel by concentrations of amoxicillin plus clavulanic acid (“augmentin”, AMC) or trimethoprim plus sulfamethoxazole (TMP-SMX) that killed 25% of the planktonic NTHI at the same density.
Anti-rsPilA or anti-IHF NRel were collected and sonicated as described above. After sonication for 2 min in a water bath sonicator to break up any NTHI aggregates, NRel or planktonic NTHI were incubated with the indicated antibiotics at 37° C. for 2 h, then serially diluted and plated on chocolate agar to quantify viable NTHI. To assay biofilm-resident NTHI, biofilms were established for 16 h at 37° C. as described above, washed twice with DPBS and incubated in sBHI supplemented with the indicated antibiotics at 37° C. After 2 h, biofilm-resident NTHI were collected by forceful pipetting, sonicated for 2 min and enumerated as described above. All experiments were performed at least three times on separate days with two or three technical replicates for each treatment and control group.

[2] = test system: NRel versus Non-Associated NTHI
Excerpt: Applicant tested for this phenotype for either Amox/Clav or Trimethoprim/Sulfamethoxazole to determine when this sensitivity first appears and how long this NRel phenotype lasts (i.e. what is the window of opportunity in which to treat a patient with a biofilm disease?). Here, NRel are compared not to planktonic bacteria (due to their artificiality) but rather to “Non-Associated” bacteria which are those found in the supernatant above the biofilm but not associated with biofilm residence as this population represents those bacteria that naturally come off the biofilm or were never a part of the biofilm which is a normal aspect of the preferred bacterial lifestyle in nature. […] Box Legend: NRelAC—relative killing by Amox/Clav; NRel TS—relative killing by Trimethoprim/Sulfamethoxazole; open symbols are the same but for the non-associated populations of bacteria as now described in this legend. Data was generated with a murine anti-tip chimer antibody.
Box Legend: NRelAC—relative killing by Amox/Clav; NRel TS—relative killing by Trimethoprim/Sulfamethoxazole; open symbols are the same but for the non-associated populations of bacteria as now described in this legend. Data was generated with a murine anti-tip chimer antibody.

[3] = after exposure to antibodies against rsPilA

Row | Compound | susceptibility of NRel M. catarrhalis compared to those from growth on agar (NRel M. catarrhalis) | susceptibility of NRel NTHI compared to those from growth on agar (NRel NTHI) | sensitivity of biofilm-resident NTHI to killing ([1]; 16 h biofilm, 2 h antibiotic) | sensitivity to killing of anti-IHF NRel compared to biofilm-resident NTHI ([1]; NRel after 15 min anti-IHF, 2 h antibiotic) | sensitivity to killing of anti-IHF NRel compared to planktonic NTHI ([1]; NRel after 15 min anti-IHF) | sensitivity to killing of anti-IHF NRel compared to planktonic NTHI ([1]; NRel after 15 min anti-IHF, listed as TMP-SMX) | sensitivity to killing of anti-rsPilA NRel compared to biofilm-resident NTHI ([1]; NRel after 6 h anti-rsPilA, 2 h antibiotic) | sensitivity to killing of anti-rsPilA NRel compared to planktonic NTHI ([1]; NRel after 6 h anti-rsPilA) | sensitivity to killing of anti-rsPilA NRel compared to planktonic NTHI ([1]; NRel after 6 h anti-rsPilA, listed as TMP-SMX) | sensitivity to killing of time-matched anti-rsPilA NRel compared to planktonic NTHI ([1]; NRel collected after 2 h, listed as TMP-SMX) | sensitivity to killing of time-matched anti-rsPilA NRel compared to planktonic NTHI ([1]; NRel collected after 2 h, listed as TMP/SMX) | sensitivity to killing of time-matched anti-IHF NRel compared to planktonic NTHI ([1]; NRel collected after 2 h, TMP-SMX 0.94 and 4.7 μg/ml, AMC 2.5 and 1.25 μg/ml) | sensitivity of anti-DNABII NRel to killing compared to Non-Associated bacteria ([2]; NRel induced with murine anti-tip chimer antibody) | sensitivity of anti-rsPilA NRel to being killed compared to Non-Associated bacteria ([2]; NTHI released by antibody against rsPilA) | time at which greater sensitivity of anti-rsPilA NRel appears [2, 3] | time at which the sensitive phenotype of anti-rsPilA NRel remains [2, 3] [h]
1 | CC[C@H]1OC(=O)[C@H](C)[C@@H](O[C@H]2C[C@@](C)(OC)[C@@H](O)[C@H](C)O2)[C@H](C)[C@@H](O[C@@H]2O[C@H](C)C[C@H](N(C)C)[C@H]2O)[C@](C)(OC)C[C@@H](C)C(=O)[C@H](C)[C@@H](O)[C@]1(C)O [clarithromycin] | more susceptible |  |  |  |  |  |  |  |  |  |  |  |  |  |  | 
2 | trimethoprim and sulfamethoxazole [T/S] |  | more susceptible | minimal sensitivity | significantly more sensitive | only equally as sensitive | only equally as sensitive | significantly more sensitive | significantly more sensitive; also recorded: significantly greater | significantly greater | significantly more susceptible | significantly more sensitive | only equally as sensitive; also recorded: equally susceptible | as but not more sensitive | significantly greater sensitivity | approximately one | ≥ 6
